Laboratory results: the Deep4Chem optical property database
One block for each compound: values may come before it.

Experiment: solvent given as SMILES

emission maximum (in ClCCl): 367 nm
Structure (SMILES): COc1ccc(-c2cc(-c3ccc(C(F)(F)F)cc3)nn2C)cc1

emission maximum (in ClCCl): 417 nm
Structure (SMILES): CCOC(=O)c1c(-c2c(Cl)c3cc(C)ccc3oc2=O)nn(-c2ccccc2)c1C(=O)OCC

emission maximum (in C1CCCCC1): 406 nm
emission maximum (in CC#N): 514 nm
emission maximum (in CO): 489 nm
emission maximum (in ClC(Cl)Cl): 479 nm
Structure (SMILES): CN(C)c1ccc(C#Cc2ccc(-c3nc(C#N)c(C#N)n3C)cc2)cc1

emission maximum (in C1CCOC1): 518 nm
emission maximum (in CC#N): 521 nm
emission maximum (in CCO): 516 nm
emission maximum (in CS(C)=O): 549 nm
Structure (SMILES): CCOC(=O)c1ccccc1-c1c2ccc(=O)cc-2oc2cc(OC(=O)[C@H](CSCc3ccc(C)cc3)NC(=O)OC(C)(C)C)ccc12

emission maximum (in ClCCl): 449 nm
Structure (SMILES): COc1cc(OC)cc(C2=CC(c3ccccc3)=C(c3ccccc3)C2)c1

emission maximum (in CC1CCCCC1): 492 nm
emission maximum (in CC#N): 510 nm
Structure (SMILES): C(=C\c1c2ccccc2cc2ccccc12)/c1ccc2ccccc2n1

emission maximum (in ClC(Cl)Cl): 682 nm
Structure (SMILES): CN1C(=CC2=C([O-])C(=Cc3oc4ccccc4[n+]3C)C2=C(C#N)C#N)Sc2ccccc21

emission maximum (in CS(C)=O): 376 nm
Structure (SMILES): COC(=O)[C@@H]1C(=O)Oc2ccccc2[C@H]1c1c[nH]c2ccccc12

emission maximum (in CC#N): 741 nm
Structure (SMILES): CC1=[N+]2C(=C(C3=CC4OCCOCCOCCOCCOC4C=C3)c3c4ccccc4c(/C=C/c4ccc(N(C)C)cc4)n3[B-]2(F)F)c2ccccc21 (stereo not given)

emission maximum (in CO): 419 nm
Structure (SMILES): Cc1ccc2nnn(-c3c(C#N)c4c(N)ncnc4n3[C@H]3C[C@H](O)[C@@H](CO)O3)c2c1

emission maximum (in O): 500 nm
Structure (SMILES): CC[n+]1c(-c2ccccc2)c2cc(NC(N)=[NH2+])ccc2c2ccc(NC(N)=[NH2+])cc21

emission maximum (in CCO): 464 nm
emission maximum (in ClC(Cl)Cl): 453 nm
Structure (SMILES): COc1ccc2c(-c3nc(-c4ccccc4F)no3)cc(=O)oc2c1

emission maximum (in C1CCCCC1): 390 nm
Structure (SMILES): C[Si](C)(C)C#Cc1ccc(C#Cc2cnc(C#Cc3ccccc3)nc2)cc1

emission maximum (in C1CCCCC1): 333 nm
Structure (SMILES): C[Si](C)(C)c1cccc2c(C#N)cccc12

emission maximum (in ClCCl): 359 nm
Structure (SMILES): FC(F)(F)c1ccc(-c2ccc(-c3cc(-c4ccccn4)nc(-c4ccccn4)c3)cc2)cc1

emission maximum (in C1CCCCC1): 437 nm
emission maximum (in CC#N): 530 nm
emission maximum (in CO): 514 nm
emission maximum (in ClC(Cl)Cl): 500 nm
Structure (SMILES): CN(C)c1ccc(/C=C/c2ccc(-c3nc(C#N)c(C#N)n3C)cc2)cc1

emission maximum (in C1CCCCC1): 408 nm
emission maximum (in C1COCCO1): 418 nm
emission maximum (in CC#N): 435 nm
emission maximum (in CCO): 439 nm
emission maximum (in OCC(F)(F)F): 436 nm
Structure (SMILES): Cc1cc2c(o1)c(Br)cc1c(C)cc(=O)oc12

emission maximum (in C1CCCCC1): 344 nm
Structure (SMILES): COC(=O)c1noc(-c2ccccc2)c1Cl

emission maximum (in ClCCl): 452 nm
Structure (SMILES): Cc1nc(-c2ccccc2O)n2c1CCCC2

emission maximum (in ClC(Cl)Cl): 665 nm
Structure (SMILES): CN1C(=CC2=C([O-])C(=CC3=[N+](C)c4ccccc4C3(C)C)C2=NC#N)C(C)(C)c2ccccc21

emission maximum (in ClCCl): 368 nm
Structure (SMILES): c1ccc2c(c1)-c1sc3ccccc3c1C21c2ccccc2-c2sc3ccccc3c21

emission maximum (in ClCCl): 641 nm
Structure (SMILES): CCCCCCn1c(=O)c2c3[nH]c4ccccc4[nH]c3c3c(=O)n(CCCCCC)c(=O)c3c2c1=O

emission maximum (in ClCCl): 391 nm
Structure (SMILES): CCn1c2cc(-c3cccs3)ccc2c2ccc(-c3cccs3)cc21

emission maximum (in CCCCCC): 553 nm
Structure (SMILES): CC(C)[Si](C#Cc1c2ccccc2c(C#C[Si](C(C)C)(C(C)C)C(C)C)c2nc3c(ccc4ccccc43)nc12)(C(C)C)C(C)C

emission maximum (in C1CCOC1): 468 nm
Structure (SMILES): Cc1cc(C)c([B-]2(c3c(C)cc(C)cc3C)[O+]=P(c3ccccc3)(c3ccccc3)c3cc(-c4ccc(C(F)(F)F)cc4)sc3-c3sc(-c4ccc(C(F)(F)F)cc4)cc32)c(C)c1

emission maximum (in CO): 558 nm
Structure (SMILES): CCOC(=O)CCCCCn1c2ccccc2c(=O)c2cc3c(cc21)c(=O)c1cc(I)ccc1n3CCCCCC(=O)OCC

Further lines, the compound ahead of its results:

Structure (SMILES): BrCCCCCCCCCCCCOc1cc2ccc3cccc4ccc(c1)c2c34
emission maximum (in Cc1ccccc1): 384 nm

Structure (SMILES): CCc1ccc(/C=C/c2ccc(-c3nnc(-c4ccc(-c5cc6ccccc6s5)cc4)o3)cc2)cc1
emission maximum (in CC#N): 421 nm
emission maximum (in CC(C)=O): 420 nm
emission maximum (in CCCCCCCC): 389 nm
emission maximum (in CCCCCCCCCCO): 420 nm
emission maximum (in CCCCCCCCO): 421 nm
emission maximum (in CCCCCO): 421 nm
emission maximum (in CCCO): 422 nm
emission maximum (in CN(C)C=O): 429 nm
emission maximum (in CO): 426 nm
emission maximum (in CS(C)=O): 433 nm

Structure (SMILES): CC(=O)Nc1ccc(S(=O)(=O)O)c(/N=N/c2c(O)c3ccccc3n(C)c2=O)c1
emission maximum (in C1CCOC1): 523 nm
emission maximum (in CC(C)=O): 516 nm
emission maximum (in CCOC(C)=O): 523 nm
emission maximum (in CO): 512 nm
emission maximum (in CS(C)=O): 526 nm
emission maximum (in Cc1ccccc1): 517 nm
emission maximum (in ClCCl): 528 nm
emission maximum (in O): 549 nm

Structure (SMILES): O=P1(c2ccccc2)C2=C(c3ccccc31)[Si](c1ccccc1)(c1ccccc1)c1cc(N(c3ccccc3)c3ccccc3)ccc12 (stereo not given)
emission maximum (in CC#N): 629 nm
emission maximum (in CO): 640 nm
emission maximum (in Cc1ccccc1): 558 nm

Structure (SMILES): CC(C)[Si]1(C(C)C)c2cc(C=C(C#N)C#N)ccc2-c2ccc(N(C)C)cc21
emission maximum (in C1CCCCC1): 509 nm
emission maximum (in CC#N): 694 nm
emission maximum (in CCO): 691 nm
emission maximum (in CCOCC): 584 nm
emission maximum (in CS(C)=O): 714 nm
emission maximum (in ClCCl): 644 nm
emission maximum (in c1ccccc1): 566 nm

Structure (SMILES): COc1cc2c3c4c(c5ccc(C(C)(C)C)cc5c5c(OC)cc(OC)c(c2c(OC)c1OC)c45)=[N+]1C3=Nc2c3c4cc(OC)c(OC)c(OC)c4c4c(OC)cc(OC)c5c6cc(C(C)(C)C)ccc6c(c3c54)n2[B-]1(F)F
emission maximum (in Cc1ccccc1): 907 nm

Structure (SMILES): Fc1c(F)c(-n2c3ccccc3c3ccccc32)c(F)c(-n2c3ccccc3c3ccccc32)c1-c1nnc(-c2ccccc2)o1
emission maximum (in Cc1ccccc1): 449 nm

Structure (SMILES): CCn1c2ccccc2c2cc(-c3cc(-c4ccc5c(c4)c4ccccc4n5CC)nc(SC)n3)ccc21
emission maximum (in C1CCOC1): 394 nm
emission maximum (in CCOC(C)=O): 392 nm
emission maximum (in CN(C)C=O): 421 nm
emission maximum (in Cc1ccccc1): 387 nm
emission maximum (in ClCCl): 411 nm

Structure (SMILES): O=C([O-])c1c(Cl)c(Cl)c(Cl)c(Cl)c1-c1c2cc(I)c(=O)c(I)c-2oc2c(I)c([O-])c(I)cc12
emission maximum (in CC(C)O): 576 nm
emission maximum (in CCO): 573 nm
emission maximum (in CO): 571 nm
emission maximum (in O): 566 nm

Structure (SMILES): Cn1cc(-c2nc3ccccc3nc2/C=C/N2CCCC2)c2ccccc21
emission maximum (in CC#N): 556.97 nm
emission maximum (in CC(C)=O): 465.99 nm
emission maximum (in CCO): 548.05 nm

Structure (SMILES): Cc1cc(C)c(-c2cc(-c3c(C)cc(C)cc3C)c3ccc4c(-c5c(C)cc(C)cc5C)cc(-c5c(C)cc(C)cc5C)c5ccc2c3c54)c(C)c1
emission maximum (in ClCCl): 411 nm

Structure (SMILES): CC1CC=C(c2ccc(-c3ccc(C#N)s3)s2)CC1 (stereo not given)
emission maximum (in C1CCOC1): 443 nm
emission maximum (in CC#N): 448 nm
emission maximum (in CCCCCC): 427 nm
emission maximum (in CCO): 443 nm
emission maximum (in OCCOCCO): 451 nm
emission maximum (in c1ccncc1): 452 nm

Structure (SMILES): CCCCn1c2c(-c3ccc(N(c4ccccc4)c4ccccc4)cc3)cc(C#N)cc2c2cc(C#N)cc(-c3ccc(N(c4ccccc4)c4ccccc4)cc3)c21
emission maximum (in C1CCCCC1): 404 nm
emission maximum (in C1CCOC1): 449 nm
emission maximum (in CC#N): 476 nm
emission maximum (in CCCCOCCCC): 419 nm
emission maximum (in CCN(CC)CC): 415 nm
emission maximum (in CCOC(C)=O): 443 nm
emission maximum (in CCOCC): 430 nm
emission maximum (in CN(C)C=O): 476 nm
emission maximum (in Cc1ccccc1): 415 nm
emission maximum (in ClC=C(Cl)Cl): 424 nm
emission maximum (in ClCCl): 452 nm

Structure (SMILES): c1cc2ccc3ccc4cc3c2cc1c1ccc2ccc3ccc(cc3c2c1)c1ccc2ccc3ccc4cc3c2c1
emission maximum (in Cc1ccccc1): 419 nm

Structure (SMILES): CC(C)(C)c1ccc2c(c1)c1cc(C(C)(C)C)ccc1n2-c1ccc(S(=O)(=O)c2ccc(-n3c4ccc(C(C)(C)C)cc4c4cc(C(C)(C)C)ccc43)nc2)cn1
emission maximum (in Cc1ccccc1): 444.37 nm
emission maximum (in O=P(c1ccccc1)(c1ccccc1)c1ccc2sc3cccc(P(=O)(c4ccccc4)c4ccccc4)c3c2c1): 467 nm

Structure (SMILES): N#Cc1cc2nc3c(nc2cc1C#N)C1c2ccc(N(c4ccccc4)c4ccccc4)cc2C3c2ccc(N(c3ccccc3)c3ccccc3)cc21
emission maximum (in C1CCCCC1): 487 nm
emission maximum (in CC#N): 492 nm
emission maximum (in Cc1ccccc1): 552 nm
emission maximum (in ClCCl): 497 nm

Structure (SMILES): CC1=CC(C)=[N+]2C1=C(c1ccc(N3CCOCC3)cc1)c1c(C)cc(C)n1[B-]2(F)F
emission maximum (in C1CCOC1): 514 nm
emission maximum (in CC#N): 511 nm
emission maximum (in CC(=O)C(C)(C)C): 520 nm
emission maximum (in CC(C)=O): 516 nm
emission maximum (in CCCCCC): 511 nm
emission maximum (in CCOC(C)=O): 517 nm
emission maximum (in CO): 514 nm

Structure (SMILES): Cc1cc(C)c([B-]2(c3c(C)cc(C)cc3C)[O+]=P(c3ccccc3)(c3ccccc3)c3cc(-c4ccc(C(C)(C)C)cc4)sc3-c3sc(-c4ccc(C(C)(C)C)cc4)cc32)c(C)c1
emission maximum (in C1CCOC1): 498 nm

Structure (SMILES): O=c1oc2ccccc2cc1-c1cc2ccccc2o1
emission maximum (in CC#N): 442 nm
emission maximum (in CCOC(C)=O): 433 nm
emission maximum (in CS(C)=O): 450 nm
emission maximum (in Cc1ccccc1): 431 nm
emission maximum (in O): 475 nm

Structure (SMILES): F[B-]1(F)n2c(-c3cccs3)cc(-c3cccs3)c2N=C2C(c3cccs3)=CC(c3cccs3)=[N+]21
emission maximum (in C1CCOC1): 763 nm
emission maximum (in CC#N): 757 nm
emission maximum (in CS(C)=O): 775 nm
emission maximum (in Cc1ccccc1): 765 nm
emission maximum (in ClCCl): 764 nm

Structure (SMILES): O=C1c2cccc3c(NCc4ccccn4)c4ccccc4c(c23)C(=O)N1Cc1ccccn1
emission maximum (in C1CCOC1): 609 nm
emission maximum (in CCCCCC): 594 nm
emission maximum (in CCO): 615 nm
emission maximum (in Cc1ccccc1): 606 nm
emission maximum (in ClCCl): 611 nm

Structure (SMILES): COc1ccc(C2=C(c3ccc(OC)cc3)C(c3ccc(OC)cc3)=[N+]3C2=C(c2ccc(OC)cc2)c2c(-c4ccc(OC)cc4)c(-c4ccc(OC)cc4)c(-c4ccc(OC)cc4)n2[B-]3(F)F)cc1
emission maximum (in C1CCOC1): 640 nm

Structure (SMILES): c1ccc(N2c3ccc4ccccc4c3-c3c4ccccc4cc[n+]3[B-]2(c2ccccc2)c2ccccc2)cc1
emission maximum (in Cc1ccccc1): 623 nm

Structure (SMILES): COc1cc(/C=C/c2ccccc2)cc(OC)c1
emission maximum (in C1CCCCC1): 364 nm
emission maximum (in CC#N): 390 nm
emission maximum (in CC(C)O): 382 nm
emission maximum (in CCCCOCCCC): 372 nm
emission maximum (in CCOC(C)=O): 382 nm
emission maximum (in CCOCC): 374 nm
